In patent US8128967B2, “Polyphenol coxib combinations and methods” (Mitsui Norin Co., Ltd., priority 2005, dated 2012):
Several values for one entry are separate records, joined by “and”; a condition that tells them apart may be missing. Equal values may be shown once.

Tests used:
[1] = test system: cisplatin-induced lung tumors; test: Experiment 1: Celecoxib with EGCg or Polyphenon E on cisplatin-induced lung tumor incidence and multiplicity; type: in vivo, A/J mice; details: for INCIDENCE: CDDP control 0.9; for MULTIPLICITY: CDDP control 2.2
Experimental: Similarly, CDDP+Cox (number)+Polyphenon E refers to animals treated with Cisplatin, Polyphenon E, and Celecoxib. Each group of animals had 10 mice.
As control, A/J mice were treated with CDDP using standard protocols well known in the art and as further described below.
Treatment with EGCg alone (see below) was performed in the animals of group 2. […] Low-dose and high-dose effects of Celecoxib were tested in groups 3 and 4 in which the COX-2 inhibitor was mixed with the diet at a concentration of either 150 ppm or 1,500 ppm as indicated by the numbers in parentheses (see below).
The effect of EGCg in combination with high- and low-dose COX-2 inhibitor was tested in groups 5 and 6 (see below). […] For these experiments, EGCg was dissolved in drinking water at 0.1% (wt/vol) concentration.
The effect of Polyphenon E in combination with high- and low-dose COX-2 inhibitor was tested in groups 7 and 8 (see below). […] For these experiments, Polyphenon E was dissolved in drinking water at 0.17% concentration.

[2] = test system: cisplatin-induced lung tumors; test: Experiment 2: celecoxib with EGCG or polyphenon E on cisplatin-induced lung tumor incidence and multiplicity; type: in vivo, female A/J mice; details: 0.1% EGCG or 0.17% polyphenon E in drinking water where combined; for INCIDENCE: killed at 26 weeks, CDDP control 95%
[3] = Experiment 2: cisplatin-induced weight loss; details: low-dose celecoxib; p<0.05
Experimental: In this study, female A/J mice (4 weeks old) were divided into seven groups: group 1, no treatment; group 2, low-dose celecoxib (150 mg/kg diet); group 3, high-dose celecoxib (1500 mg/kg diet); group 4, 0.1% EGCG+low-dose celecoxib treatment (150 mg/kg diet); group 5, 0.1% EGCG+high-dose celecoxib (1500 mg/kg diet); group 6, 0.17% polyphenon E+low-dose celecoxib (150 mg/kg diet); group 7, 0.17% polyphenon E+high-dose celecoxib (1500 mg/kg diet). All mice were treated with cisplatin (1.62 mg/kg of body weight, i.p.) once a week for 10 weeks from 7 to 16 weeks of age. Mice in groups 2, 3, 4, 5, 6, and 7 were exclusively fed experimental diet prepared by mixing celecoxib. EGCG and polyphenon E were provided in drinking water. Seven groups of mice were killed at 26 weeks after treatment.

[4] = test system: cisplatin-induced lung tumors; details: administered as individual compounds; Carcinogenesis 21(5):915, 2000; Proc AACR 44 #4920; cited from earlier work
[5] = celecoxib 150 ppm in diet (low dose), EGCg 0.1% or Polyphenon E 0.17% in drinking water where combined
[6] = celecoxib 1,500 ppm in diet (high dose), EGCg 0.1% or Polyphenon E 0.17% in drinking water where combined
[7] = EGCg 0.1% (wt/vol) in drinking water, no celecoxib

| cisplatin-induced weight loss (in words) [3] | Molecule | INCIDENCE [1, 5] | MULTIPLICITY [1, 5] | INCIDENCE [1, 6] | MULTIPLICITY [1, 6] | MULTIPLICITY (number of tumors/mouse, mean±SD in text) ([2]; high-dose celecoxib 1500 mg/kg diet, CDDP control 2.2) | MULTIPLICITY (number of tumors/mouse, mean±SD in text) ([2]; high-dose celecoxib 1500 mg/kg diet, CDDP control 2.2, listed as Celecoxib) | INCIDENCE ([2]; high-dose celecoxib 1500 mg/kg diet) | INCIDENCE ([2]; high-dose celecoxib 1500 mg/kg diet, listed as Celecoxib) | MULTIPLICITY (number of tumors/mouse, mean±SD in text) ([2]; low-dose celecoxib 150 mg/kg diet, CDDP control 2.2) | MULTIPLICITY (number of tumors/mouse, mean±SD in text) ([2]; low-dose celecoxib 150 mg/kg diet, CDDP control 2.2, listed as Celecoxib) | INCIDENCE ([2]; low-dose celecoxib 150 mg/kg diet) | INCIDENCE ([2]; low-dose celecoxib 150 mg/kg diet, listed as Celecoxib) | INCIDENCE [1, 7] | MULTIPLICITY [1, 7] | effect on tumor incidence (in words) ([1]; EGCg alone) | reduction of tumor multiplicity versus control ([1]; EGCg alone) | mice that developed tumors (tumor incidence) ([1]; EGCg alone, control 90%) | inhibition of cisplatin-induced lung tumors (in words) [4] |
| --- | --- | --- | --- | --- | --- | --- | --- | --- | --- | --- | --- | --- | --- | --- | --- | --- | --- | --- | --- |
| significantly prevented | Cc1ccc(-c2cc(C(F)(F)F)nn2-c2ccc(S(N)(=O)=O)cc2)cc1 [Cox, celecoxib] | 0.9 | 2.1 | 0.91 | 1.91 | 1.7 tumors/mouse | 1.7±1.2 tumors/mouse | 85.7% | 85.7% | 2.1 tumors/mouse | 2.1±1.3 tumors/mouse | 95% | 95% |  |  |  |  |  |  |
|  | (−)-epigallocatechin gallate [EGCg] |  |  |  |  |  |  |  |  |  |  |  |  | 0.8 | 1.2 | could not significantly reduce tumor incidence | 45% and ~50% | 80% | partially inhibits |
